Test results reported in patent US7135162B2, “Agent for diagnosing and treating malignant tumors” (Cosmo Research Institute, priority 1997, dated 2006).
“And” between values parts separate entries of the source, which are not always exact repeats. Equal entries are not always repeated.

System: human ovarian cancer cisplatin-resistant cultured cell A2480CP
Assay: ^13C-NMR of excised cancer cells and femoral muscle after intravenous administration to tumour-bearing nude mice
Settings: for ^13C Area integrated value, Cancer cells: 300 mg/kg, caudal vein, peak areas 90 to 160 ppm, relative to 100 = first animal after 8 hours, two animals
Description: Nude mice (female BALB Cnu/nu, about 8 mm in cancer diameter) were used after 3 weeks of the transplantation of 2×10^6 cells/animal of human ovarian cancer cisplatin-resistant cultured cell A2480CP to the right-side body subcutaneously. Preparation of ^13C-labeled 5-aminolevulinic acid aqueous solution:
5-Aminolevulinic acid hydrochloride in which the 5-position carbon was replaced with ^13C (Production Example 4) was used. The 5-aminolevulinic acid hydrochloride in which the 5-position carbon was replaced with ^13C was dissolved in distilled water at a ratio of 25 g/L, and the solution was neutralized to pH 7 with sodium hydroxide.
The thus neutralized solution was sterilized by immediately passing through a 0.22 μm filter and administered from the mouse caudal vein at a ratio of 12 μl per g body weight. This dose corresponds to 300 mg administration of 5-aminolevulinic acid hydrochloride per 1 kg body weight. After 2, 4 and 8 hours of the administration, mice were sacrificed and subjected to bloodletting, and then the cancer cells and femoral part were excised and packed in 10 mmφ NMR sample tubes to the same volume to measure ^13C-NMR by super-conductive NMR, JNM-A400 manufactured by JEOL, at an observation frequency of 100.50 MHz using a proton decoupling method.
After the measurement, peak areas of from 90 to 160 ppm were integrated, and relative values were calculated based on the value 100 of the first animal after 8 hours of the administration. The test was carried out using two animals for each condition.

## Cl.N[13CH2]C(=O)CCC(=O)O [^13C-labeled 5-aminolevulinic acid, 5-Aminolevulinic acid hydrochloride in which the 5-position carbon was replaced with ^13C]
2 hours after administration
  ^13C Area integrated value, Cancer cells: 19 and 22
4 hours after administration
  ^13C Area integrated value, Cancer cells: 89 and 73
8 hours after administration
  ^13C Area integrated value, Cancer cells: 100 and 87
Summary of Table 3, 2, 4 and 8 hours after administration
  existing frequency of ^13C, cancer cells versus muscle: higher in the cancer cells than in the muscle
